Data taken from PubChem BioAssay (NCI).
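The compound was tested at five concentrations on cells cultured in 96-well plates, with a 48-hour exposure period. TGI marks complete inhibition of growth.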

Key:
Experiment in all cases: NCI tumour cell line growth inhibition, 48 h
786-0 renal = tested on: 786-0 renal
A498 renal = tested on: A498 renal
A549 NSCLC = tested on: A549 NSCLC
CAKI-1 renal = tested on: CAKI-1 renal
CCRF-CEM leukemia = tested on: CCRF-CEM leukemia
COLO 205 colon = tested on: COLO 205 colon
DLD-1 colon = tested on: DLD-1 colon
DMS 114 small cell lung = tested on: DMS 114 small cell lung
DMS 273 small cell lung = tested on: DMS 273 small cell lung
EKVX NSCLC = tested on: EKVX NSCLC
HCC-2998 colon = tested on: HCC-2998 colon
HCT-116 colon = tested on: HCT-116 colon
HL-60(TB) leukemia = tested on: HL-60(TB) leukemia
HOP-62 NSCLC = tested on: HOP-62 NSCLC
HOP-92 NSCLC = tested on: HOP-92 NSCLC
HT29 colon = tested on: HT29 colon
IGROV1 ovarian = tested on: IGROV1 ovarian
K-562 leukemia = tested on: K-562 leukemia
KM12 colon = tested on: KM12 colon
LXFL 529 NSCLC = tested on: LXFL 529 NSCLC
M14 melanoma = tested on: M14 melanoma
M19-MEL melanoma = tested on: M19-MEL melanoma
MALME-3M melanoma = tested on: MALME-3M melanoma
MOLT-4 leukemia = tested on: MOLT-4 leukemia
NCI-H226 lung = tested on: NCI-H226 lung
NCI-H23 lung = tested on: NCI-H23 lung
NCI-H522 lung = tested on: NCI-H522 lung
OVCAR-3 ovarian = tested on: OVCAR-3 ovarian
OVCAR-4 ovarian = tested on: OVCAR-4 ovarian
OVCAR-8 ovarian = tested on: OVCAR-8 ovarian
RPMI-8226 leukemia = tested on: RPMI-8226 leukemia
RXF-631 renal = tested on: RXF-631 renal
SF-268 CNS = tested on: SF-268 CNS
SF-295 CNS = tested on: SF-295 CNS
SF-539 CNS = tested on: SF-539 CNS
SK-MEL-2 melanoma = tested on: SK-MEL-2 melanoma
SK-MEL-28 melanoma = tested on: SK-MEL-28 melanoma
SK-MEL-5 melanoma = tested on: SK-MEL-5 melanoma
SK-OV-3 ovarian = tested on: SK-OV-3 ovarian
SN12C renal = tested on: SN12C renal
SNB-19 CNS = tested on: SNB-19 CNS
SNB-75 CNS = tested on: SNB-75 CNS
SNB-78 CNS = tested on: SNB-78 CNS
SR leukemia = tested on: SR leukemia
SW-620 colon = tested on: SW-620 colon
TK-10 renal = tested on: TK-10 renal
UACC-257 melanoma = tested on: UACC-257 melanoma
UACC-62 melanoma = tested on: UACC-62 melanoma
UO-31 renal = tested on: UO-31 renal
XF 498 CNS = tested on: XF 498 CNS
ACHN renal = tested on: ACHN renal
HCT-15 colon = tested on: HCT-15 colon
HOP-18 NSCLC = tested on: HOP-18 NSCLC
KM20L2 colon = tested on: KM20L2 colon
LOX IMVI melanoma = tested on: LOX IMVI melanoma
NCI-H460 lung = tested on: NCI-H460 lung
OVCAR-5 ovarian = tested on: OVCAR-5 ovarian
U251 CNS = tested on: U251 CNS
RXF 393 renal = tested on: RXF 393 renal

Compound: O=S1(=O)OCCOS(=O)(=O)C1I
- TGI (786-0 renal): > 100 µM
- TGI (A498 renal): > 100 µM
- TGI (A549 NSCLC): > 100 µM
- TGI (CAKI-1 renal): > 100 µM
- TGI (CCRF-CEM leukemia): > 100 µM
- TGI (COLO 205 colon): > 100 µM
- TGI (DLD-1 colon): > 100 µM
- TGI (DMS 114 small cell lung): > 100 µM
- TGI (DMS 273 small cell lung): > 100 µM
- TGI (EKVX NSCLC): > 100 µM
- TGI (HCC-2998 colon): > 100 µM
- TGI (HCT-116 colon): > 100 µM
- TGI (HL-60(TB) leukemia): > 100 µM
- TGI (HOP-62 NSCLC): > 100 µM
- TGI (HOP-92 NSCLC): > 100 µM
- TGI (HT29 colon): > 100 µM
- TGI (IGROV1 ovarian): > 100 µM
- TGI (K-562 leukemia): > 100 µM
- TGI (KM12 colon): > 100 µM
- TGI (LXFL 529 NSCLC): > 100 µM
- TGI (M14 melanoma): > 100 µM
- TGI (M19-MEL melanoma): > 100 µM
- TGI (MALME-3M melanoma): > 100 µM
- TGI (MOLT-4 leukemia): > 100 µM
- TGI (NCI-H226 lung): > 100 µM
- TGI (NCI-H23 lung): > 100 µM
- TGI (NCI-H522 lung): > 100 µM
- TGI (OVCAR-3 ovarian): > 100 µM
- TGI (OVCAR-4 ovarian): > 100 µM
- TGI (OVCAR-8 ovarian): > 100 µM
- TGI (RPMI-8226 leukemia): > 100 µM
- TGI (RXF-631 renal): > 100 µM
- TGI (SF-268 CNS): > 100 µM
- TGI (SF-295 CNS): > 100 µM
- TGI (SF-539 CNS): > 100 µM
- TGI (SK-MEL-2 melanoma): > 100 µM
- TGI (SK-MEL-28 melanoma): > 100 µM
- TGI (SK-MEL-5 melanoma): > 100 µM
- TGI (SK-OV-3 ovarian): > 100 µM
- TGI (SN12C renal): > 100 µM
- TGI (SNB-19 CNS): > 100 µM
- TGI (SNB-75 CNS): > 100 µM
- TGI (SNB-78 CNS): > 100 µM
- TGI (SR leukemia): > 100 µM
- TGI (SW-620 colon): > 100 µM
- TGI (TK-10 renal): > 100 µM
- TGI (UACC-257 melanoma): > 100 µM
- TGI (UACC-62 melanoma): > 100 µM
- TGI (UO-31 renal): > 100 µM
- TGI (XF 498 CNS): > 100 µM

Compound: COc1cc(C2=NN(C)C(c3ccc([N+](=O)[O-])o3)C2)cc(OC)c1OC (stereo not drawn)
- TGI (786-0 renal): 42.7 µM
- TGI (A498 renal): > 100 µM
- TGI (A549 NSCLC): > 100 µM
- TGI (ACHN renal): > 100 µM
- TGI (CAKI-1 renal): > 100 µM
- TGI (CCRF-CEM leukemia): 72 µM
- TGI (COLO 205 colon): > 100 µM
- TGI (DLD-1 colon): > 100 µM
- TGI (DMS 114 small cell lung): > 100 µM
- TGI (DMS 273 small cell lung): > 100 µM
- TGI (EKVX NSCLC): > 100 µM
- TGI (HCC-2998 colon): > 100 µM
- TGI (HCT-116 colon): > 100 µM
- TGI (HCT-15 colon): 32.7 µM
- TGI (HL-60(TB) leukemia): > 100 µM
- TGI (HOP-18 NSCLC): > 100 µM
- TGI (HOP-62 NSCLC): > 100 µM
- TGI (HOP-92 NSCLC): > 100 µM
- TGI (HT29 colon): > 100 µM
- TGI (IGROV1 ovarian): > 100 µM
- TGI (K-562 leukemia): > 100 µM
- TGI (KM12 colon): > 100 µM
- TGI (KM20L2 colon): > 100 µM
- TGI (LOX IMVI melanoma): > 100 µM
- TGI (LXFL 529 NSCLC): > 100 µM
- TGI (M14 melanoma): > 100 µM
- TGI (M19-MEL melanoma): > 100 µM
- TGI (MALME-3M melanoma): > 100 µM
- TGI (MOLT-4 leukemia): > 100 µM
- TGI (NCI-H226 lung): > 100 µM
- TGI (NCI-H23 lung): > 100 µM
- TGI (NCI-H460 lung): > 100 µM
- TGI (NCI-H522 lung): > 100 µM
- TGI (OVCAR-4 ovarian): > 100 µM
- TGI (OVCAR-5 ovarian): > 100 µM
- TGI (OVCAR-8 ovarian): > 100 µM
- TGI (RPMI-8226 leukemia): 31.8 µM
- TGI (RXF-631 renal): > 100 µM
- TGI (SF-268 CNS): > 100 µM
- TGI (SF-295 CNS): > 100 µM
- TGI (SF-539 CNS): > 100 µM
- TGI (SK-MEL-2 melanoma): > 100 µM
- TGI (SK-MEL-28 melanoma): > 100 µM
- TGI (SK-MEL-5 melanoma): > 100 µM
- TGI (SK-OV-3 ovarian): > 100 µM
- TGI (SN12C renal): > 100 µM
- TGI (SNB-19 CNS): > 100 µM
- TGI (SNB-75 CNS): > 100 µM
- TGI (SNB-78 CNS): > 100 µM
- TGI (SR leukemia): 38.6 µM
- TGI (SW-620 colon): 30.6 µM
- TGI (TK-10 renal): > 100 µM
- TGI (U251 CNS): > 100 µM
- TGI (UACC-257 melanoma): > 100 µM
- TGI (UACC-62 melanoma): > 100 µM
- TGI (UO-31 renal): > 100 µM

Compound: C/C(=C\C(C)COCc1ccccc1)[C@H](COCc1ccccc1)OCc1ccccc1 (stereo partly drawn)
- TGI (786-0 renal): > 100 µM
- TGI (A498 renal): > 100 µM
- TGI (A549 NSCLC): > 100 µM
- TGI (ACHN renal): > 100 µM
- TGI (CCRF-CEM leukemia): > 100 µM
- TGI (COLO 205 colon): > 100 µM
- TGI (DMS 114 small cell lung): > 100 µM
- TGI (DMS 273 small cell lung): > 100 µM
- TGI (EKVX NSCLC): > 100 µM
- TGI (HCC-2998 colon): > 100 µM
- TGI (HCT-116 colon): > 100 µM
- TGI (HCT-15 colon): > 100 µM
- TGI (HOP-62 NSCLC): > 100 µM
- TGI (HOP-92 NSCLC): > 100 µM
- TGI (HT29 colon): > 100 µM
- TGI (IGROV1 ovarian): > 100 µM
- TGI (K-562 leukemia): > 100 µM
- TGI (KM12 colon): > 100 µM
- TGI (KM20L2 colon): > 100 µM
- TGI (LOX IMVI melanoma): > 100 µM
- TGI (LXFL 529 NSCLC): > 100 µM
- TGI (M14 melanoma): > 100 µM
- TGI (M19-MEL melanoma): > 100 µM
- TGI (MOLT-4 leukemia): > 100 µM
- TGI (NCI-H226 lung): > 100 µM
- TGI (NCI-H23 lung): > 100 µM
- TGI (NCI-H460 lung): > 100 µM
- TGI (NCI-H522 lung): > 100 µM
- TGI (OVCAR-3 ovarian): > 100 µM
- TGI (OVCAR-4 ovarian): > 100 µM
- TGI (OVCAR-5 ovarian): > 100 µM
- TGI (OVCAR-8 ovarian): > 100 µM
- TGI (RPMI-8226 leukemia): > 100 µM
- TGI (RXF 393 renal): > 100 µM
- TGI (RXF-631 renal): > 100 µM
- TGI (SF-268 CNS): > 100 µM
- TGI (SF-295 CNS): > 100 µM
- TGI (SF-539 CNS): > 100 µM
- TGI (SK-MEL-2 melanoma): > 100 µM
- TGI (SK-MEL-28 melanoma): > 100 µM
- TGI (SK-MEL-5 melanoma): > 100 µM
- TGI (SK-OV-3 ovarian): > 100 µM
- TGI (SN12C renal): > 100 µM
- TGI (SNB-19 CNS): > 100 µM
- TGI (SNB-75 CNS): > 100 µM
- TGI (SNB-78 CNS): > 100 µM
- TGI (SW-620 colon): > 100 µM
- TGI (TK-10 renal): > 100 µM
- TGI (U251 CNS): > 100 µM
- TGI (UACC-62 melanoma): > 100 µM
- TGI (UO-31 renal): > 100 µM
- TGI (XF 498 CNS): > 100 µM
